Data as given in patent publication US8101647B2, “Spiro-oxindole compounds and their use as therapeutic agents” (Xenon Pharmaceuticals Inc., priority 2008, dated 2012).

Legend:
[1] = tested on: inactivated state of the channel of interest (sodium channel); assay: Electrophysiological assay (whole cell voltage clamp); type: cell-based; conditions: affinity for the inactivated state of the channel
Procedure: Cells expressing the channel of interest are cultured in DMEM growth media (Gibco) with 0.5 mg/mL G418, +/−1% PSG, and 10% heat-inactivated fetal bovine serum at 37° C. and 5% CO2. For electrophysiological recordings, cells are plated on 10 mm dishes.
Whole cell recordings are examined by established methods of whole cell voltage clamp (Bean et al., op. cit.) using an Axopatch 200B amplifier and Clampex software (Axon Instruments, Union City, Calif.). All experiments are performed at ambient temperature. Electrodes are fire-polished to resistances of 2-4 Mohms Voltage errors and capacitance artifacts are minimized by series resistance compensation and capacitance compensation, respectively. Data are acquired at 40 kHz and filtered at 5 kHz. The external (bath) solution consists of: NaCl (140 mM), KCl (5 mM), CaCl2 (2 mM), MgCl2 (1 mM), HEPES (10 mM) at pH 7.4. The internal (pipette) solution consists of (in mM): NaCl (5), CaCl2 (0.1), MgCl2 (2), CsCl (10), CsF (120), HEPES (10), EGTA (10), at pH 7.2.
To estimate the steady-state affinity of compounds for the resting and inactivated state of the channel (Kr and Ki, respectively), 12.5 ms test pulses to depolarizing voltages from −60 to +90 m V from a holding potential of −120 m V is used to construct current-voltage relationships (I-V curves). A voltage near the peak of the IV-curve (−30 to 0 m V) is used as the test pulse throughout the remainder of the experiment. Steady-state inactivation (availability) curves are then constructed by measuring the current activated during a 8.75 ms test pulse following 1 second conditioning pulses to potentials ranging from −120 to −10 mV.
The steady-state voltage-dependence of binding of a compound to a sodium channel is determined by measuring the blockage of the ionic current at two holding potentials. Binding to rested-state channels is determined by using a holding potential of −120 mV, so that maximal availability is achieved. Binding to inactivated-state channels is evaluated at a holding potential such that only 10% of the channels are available to open. The membrane potential is held at this voltage for at least 10 seconds so that drug binding can equilibrate.
The apparent dissociation constant at each voltage is calculated with the equation:
[formula] where Kd is the dissociation constant (either Kr or Ki), and [Drug] is the concentration of the test compound.
The Example numbers provided in Table 3 correspond to the Examples herein: […]

sodium channel = assay: Guanidine influx assay; type: cell-based, human or rat; conditions: known cell line that expresses a sodium channel; read-out: IC50 Activity Level
From the text: This example describes an in vitro assay for testing and profiling test agents against human or rat sodium channels stably expressed in cells of either an endogenous or recombinant origin. The assay is also useful for determining the IC50 of a sodium channel blocking compound. The assay is based on the guanidine flux assay described by Reddy, N. L., et al., J. Med. Chem. (1998), 41(17):3298-302.
The guanidine influx assay is a radiotracer flux assay used to determine ion flux activity of sodium channels in a high-throughput microplate-based format. The assay uses ^14C-guanidine hydrochloride in combination with various known sodium channel modulators, to assay the potency of test agents. Potency is determined by an IC50 calculation. Selectivity is determined by comparing potency of the compound for the channel of interest to its potency against other sodium channels (also called ‘selectivity profiling’).
Each of the test agents is assayed against cells that express the channels of interest. Voltage gated sodium channels are either TTX sensitive or insensitive. This property is useful when evaluating the activities of a channel of interest when it resides in a mixed population with other sodium channels. The following Table 1 summarizes cell lines useful in screening for a certain channel activity in the presence or absence of TTX.
It is also possible to employ recombinant cells expressing these sodium channels. Cloning and propagation of recombinant cells are known to those skilled in the art (see, for example, Klugbauer, N, et al., EMBO J. (1995), 14(6):1084-90; and Lossin, C., et al., Neuron (2002), 34, pp. 877-884).
Cells expressing the channel of interest are grown according to the supplier or in the case of a recombinant cell in the presence of selective growth media such as G418 (Gibco/Invitrogen). The cells are disassociated from the culture dishes with an enzymatic solution (1×) Trypsin/EDTA (Gibco/Invitrogen) and analyzed for density and viability using haemocytometer (Neubauer). Disassociated cells are washed and resuspended in their culture media then plated into Scintiplates (Beckman Coulter Inc.) (approximately 100,000 cells/well) and incubated at 37° C./5% CO2. for 20-24 hours. After an extensive wash with Low sodium HEPES-buffered saline solution (LNHBSS) (150 mM Choline Chloride, […] (Sigma), 1 mM Calcium Chloride, 5 mM Potassium Chloride, 1 mM Magnesium Chloride, 10 mM Glucose) agents diluted with LNHBSS are added to each well. (Varying concentrations of test agent may be used). The activation/radiolabel mixture contains aconitine (Sigma) to increase the percentage of time that the sodium channels are open, and ^14C-guanidine hydrochloride (ARC) to measure flux through the voltage-gated sodium channels.
After loading the cells with test agent and activation/radiolabel mixture, the Scintiplates are incubated at ambient temperature. Following the incubation, the Scintplates are extensively washed with LNHBSS supplemented with guanidine (Sigma). The Scintiplates are dried and then counted using a Wallac MicroBeta TriLux (Perkin-Elmer Life Sciences). The ability of the test agent to block sodium channel activity is determined by comparing the amount of ^14C-guanidine present inside the cells expressing the different sodium channels.
The IC50 value of a test agent for a specific sodium channel may be determined using the above general method. […] Typically the mid-point concentration of test agent is set at 1 μM, and sequential concentrations of half dilutions greater or smaller are applied (e.g. 0.5 μM; 5 μM and 0.25 μM; 10 μM and 0.125 μM; 20 μM etc.). The IC50 curve is calculated using the 4 Parameter Logistic Model or Sigmoidal Dose-Response Model formula (fit=(A+((B−A)/(1+((C/x)^D)))).
The fold selectivity, factor of selectivity or multiple of selectivity, is calculated by dividing the IC50 value of the test sodium channel by the reference sodium channel, for example, NaV1.5. […]

CYP3A4 = target: T1, CYP3A4 (Homo sapiens, UniProt P08684); assay: Cytochrome P450 (CYP450) inhibition assay, fluorescence-based; type: in vitro ADME; conditions: recombinant CYP3A4 (P450 Baculosomes), probe Vivid substrate (fluorogenic)
T1 construct: purchased Invitrogen Corporation (Vivid CYP450 Screening Kit)
T1 sequence (P08684 whole entry): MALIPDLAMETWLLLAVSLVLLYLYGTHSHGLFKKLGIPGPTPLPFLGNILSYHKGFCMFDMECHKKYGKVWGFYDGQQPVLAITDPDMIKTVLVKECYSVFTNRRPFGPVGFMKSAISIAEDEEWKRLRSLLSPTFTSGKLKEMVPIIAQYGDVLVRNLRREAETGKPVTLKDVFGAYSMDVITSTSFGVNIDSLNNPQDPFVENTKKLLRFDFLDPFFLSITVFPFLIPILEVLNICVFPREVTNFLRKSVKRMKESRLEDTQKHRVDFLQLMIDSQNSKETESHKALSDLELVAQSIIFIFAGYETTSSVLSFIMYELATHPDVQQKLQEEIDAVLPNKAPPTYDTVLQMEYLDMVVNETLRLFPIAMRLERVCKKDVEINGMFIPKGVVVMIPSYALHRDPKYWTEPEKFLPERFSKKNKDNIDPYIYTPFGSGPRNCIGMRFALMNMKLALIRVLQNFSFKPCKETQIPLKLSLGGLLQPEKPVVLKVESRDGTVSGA

CYP2C19 = CYP2C19 (Homo sapiens, UniProt P33261)
CYP2C9 = CYP2C9 (Homo sapiens, UniProt P11712)
Sequence of CYP2C9 (P11712 whole entry): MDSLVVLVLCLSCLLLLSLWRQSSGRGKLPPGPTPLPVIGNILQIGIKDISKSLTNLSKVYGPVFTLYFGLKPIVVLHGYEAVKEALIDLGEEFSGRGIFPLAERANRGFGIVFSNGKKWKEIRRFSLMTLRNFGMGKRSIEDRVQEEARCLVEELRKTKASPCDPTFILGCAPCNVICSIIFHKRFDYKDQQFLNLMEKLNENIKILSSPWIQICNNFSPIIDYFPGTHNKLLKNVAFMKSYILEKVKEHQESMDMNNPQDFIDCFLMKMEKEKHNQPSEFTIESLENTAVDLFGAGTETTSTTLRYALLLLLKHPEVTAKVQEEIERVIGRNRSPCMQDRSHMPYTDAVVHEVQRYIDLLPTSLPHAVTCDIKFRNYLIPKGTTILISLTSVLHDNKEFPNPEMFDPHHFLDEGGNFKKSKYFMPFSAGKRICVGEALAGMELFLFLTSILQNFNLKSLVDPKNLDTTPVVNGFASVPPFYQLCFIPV

CHO-K1 (Nav1.4) = CHO-K1 (Nav1.4) (Cricetulus griseus, UniProt A0A9J7H6F9); type: cell-based, Chinese Hamster
[2] = tested on: SH-SY5Y (Nav1.9 and Nav1.7); type: cell-based, Human
L6 (Nav1.4 and 1.5) = type: cell-based, rat
PC12 (Nav1.2) = PC12 (Nav1.2) (Rattus norvegicus, UniProt P04775)
Sequence of PC12 (Nav1.2) (P04775 whole entry, looked up): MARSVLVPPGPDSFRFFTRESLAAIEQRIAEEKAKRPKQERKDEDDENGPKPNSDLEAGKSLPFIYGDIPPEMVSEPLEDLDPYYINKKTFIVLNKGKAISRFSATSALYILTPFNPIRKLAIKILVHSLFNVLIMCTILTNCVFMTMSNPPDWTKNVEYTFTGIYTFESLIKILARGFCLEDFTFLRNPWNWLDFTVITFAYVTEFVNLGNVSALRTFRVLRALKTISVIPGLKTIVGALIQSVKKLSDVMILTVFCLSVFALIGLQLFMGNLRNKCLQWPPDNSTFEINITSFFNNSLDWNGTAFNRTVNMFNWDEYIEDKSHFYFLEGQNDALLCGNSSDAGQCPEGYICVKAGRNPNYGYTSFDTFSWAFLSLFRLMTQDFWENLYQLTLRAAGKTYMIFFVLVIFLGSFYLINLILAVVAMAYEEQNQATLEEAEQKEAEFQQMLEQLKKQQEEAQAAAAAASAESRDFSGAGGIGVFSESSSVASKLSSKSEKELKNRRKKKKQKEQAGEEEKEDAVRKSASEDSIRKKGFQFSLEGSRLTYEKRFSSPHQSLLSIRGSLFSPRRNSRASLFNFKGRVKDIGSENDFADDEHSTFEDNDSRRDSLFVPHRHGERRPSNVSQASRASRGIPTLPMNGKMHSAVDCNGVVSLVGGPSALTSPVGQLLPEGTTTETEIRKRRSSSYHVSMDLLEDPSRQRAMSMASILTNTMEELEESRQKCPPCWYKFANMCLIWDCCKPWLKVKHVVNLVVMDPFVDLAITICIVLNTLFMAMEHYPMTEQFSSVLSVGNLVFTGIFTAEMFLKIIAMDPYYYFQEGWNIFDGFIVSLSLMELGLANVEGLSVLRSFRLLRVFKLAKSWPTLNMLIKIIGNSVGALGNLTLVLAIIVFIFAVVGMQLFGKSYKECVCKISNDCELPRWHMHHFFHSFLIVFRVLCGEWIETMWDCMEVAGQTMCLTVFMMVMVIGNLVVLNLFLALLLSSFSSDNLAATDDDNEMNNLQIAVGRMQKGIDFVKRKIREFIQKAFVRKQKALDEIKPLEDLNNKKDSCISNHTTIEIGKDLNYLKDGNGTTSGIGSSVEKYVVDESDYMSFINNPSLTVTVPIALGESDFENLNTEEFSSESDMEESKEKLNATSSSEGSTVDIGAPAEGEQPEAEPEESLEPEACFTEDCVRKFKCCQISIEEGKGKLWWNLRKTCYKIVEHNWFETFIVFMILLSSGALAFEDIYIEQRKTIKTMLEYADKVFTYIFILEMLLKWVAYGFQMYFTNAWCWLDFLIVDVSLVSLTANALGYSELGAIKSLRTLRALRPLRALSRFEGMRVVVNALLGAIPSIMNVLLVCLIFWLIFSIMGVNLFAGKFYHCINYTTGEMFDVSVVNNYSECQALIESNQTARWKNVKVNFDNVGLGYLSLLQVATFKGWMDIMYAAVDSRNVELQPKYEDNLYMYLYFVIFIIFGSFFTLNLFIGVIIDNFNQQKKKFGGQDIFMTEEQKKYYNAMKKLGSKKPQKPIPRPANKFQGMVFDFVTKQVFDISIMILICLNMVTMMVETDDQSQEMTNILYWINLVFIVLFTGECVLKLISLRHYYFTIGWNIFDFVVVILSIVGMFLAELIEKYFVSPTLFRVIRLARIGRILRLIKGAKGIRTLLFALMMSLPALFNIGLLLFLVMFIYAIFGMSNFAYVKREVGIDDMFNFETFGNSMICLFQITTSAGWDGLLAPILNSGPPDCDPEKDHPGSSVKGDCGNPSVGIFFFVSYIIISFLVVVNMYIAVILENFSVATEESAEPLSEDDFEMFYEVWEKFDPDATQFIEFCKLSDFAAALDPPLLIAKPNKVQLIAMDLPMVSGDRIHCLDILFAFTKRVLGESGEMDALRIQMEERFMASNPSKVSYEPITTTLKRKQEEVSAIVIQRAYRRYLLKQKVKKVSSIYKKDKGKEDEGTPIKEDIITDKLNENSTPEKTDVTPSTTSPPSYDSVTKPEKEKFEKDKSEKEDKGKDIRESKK

SK-N-BE2C (Nav1.8) = SK-N-BE2C (Nav1.8) (Homo sapiens, UniProt Q9Y5Y9); type: cell-based
Sequence of SK-N-BE2C (Nav1.8) (Q9Y5Y9 whole entry, looked up): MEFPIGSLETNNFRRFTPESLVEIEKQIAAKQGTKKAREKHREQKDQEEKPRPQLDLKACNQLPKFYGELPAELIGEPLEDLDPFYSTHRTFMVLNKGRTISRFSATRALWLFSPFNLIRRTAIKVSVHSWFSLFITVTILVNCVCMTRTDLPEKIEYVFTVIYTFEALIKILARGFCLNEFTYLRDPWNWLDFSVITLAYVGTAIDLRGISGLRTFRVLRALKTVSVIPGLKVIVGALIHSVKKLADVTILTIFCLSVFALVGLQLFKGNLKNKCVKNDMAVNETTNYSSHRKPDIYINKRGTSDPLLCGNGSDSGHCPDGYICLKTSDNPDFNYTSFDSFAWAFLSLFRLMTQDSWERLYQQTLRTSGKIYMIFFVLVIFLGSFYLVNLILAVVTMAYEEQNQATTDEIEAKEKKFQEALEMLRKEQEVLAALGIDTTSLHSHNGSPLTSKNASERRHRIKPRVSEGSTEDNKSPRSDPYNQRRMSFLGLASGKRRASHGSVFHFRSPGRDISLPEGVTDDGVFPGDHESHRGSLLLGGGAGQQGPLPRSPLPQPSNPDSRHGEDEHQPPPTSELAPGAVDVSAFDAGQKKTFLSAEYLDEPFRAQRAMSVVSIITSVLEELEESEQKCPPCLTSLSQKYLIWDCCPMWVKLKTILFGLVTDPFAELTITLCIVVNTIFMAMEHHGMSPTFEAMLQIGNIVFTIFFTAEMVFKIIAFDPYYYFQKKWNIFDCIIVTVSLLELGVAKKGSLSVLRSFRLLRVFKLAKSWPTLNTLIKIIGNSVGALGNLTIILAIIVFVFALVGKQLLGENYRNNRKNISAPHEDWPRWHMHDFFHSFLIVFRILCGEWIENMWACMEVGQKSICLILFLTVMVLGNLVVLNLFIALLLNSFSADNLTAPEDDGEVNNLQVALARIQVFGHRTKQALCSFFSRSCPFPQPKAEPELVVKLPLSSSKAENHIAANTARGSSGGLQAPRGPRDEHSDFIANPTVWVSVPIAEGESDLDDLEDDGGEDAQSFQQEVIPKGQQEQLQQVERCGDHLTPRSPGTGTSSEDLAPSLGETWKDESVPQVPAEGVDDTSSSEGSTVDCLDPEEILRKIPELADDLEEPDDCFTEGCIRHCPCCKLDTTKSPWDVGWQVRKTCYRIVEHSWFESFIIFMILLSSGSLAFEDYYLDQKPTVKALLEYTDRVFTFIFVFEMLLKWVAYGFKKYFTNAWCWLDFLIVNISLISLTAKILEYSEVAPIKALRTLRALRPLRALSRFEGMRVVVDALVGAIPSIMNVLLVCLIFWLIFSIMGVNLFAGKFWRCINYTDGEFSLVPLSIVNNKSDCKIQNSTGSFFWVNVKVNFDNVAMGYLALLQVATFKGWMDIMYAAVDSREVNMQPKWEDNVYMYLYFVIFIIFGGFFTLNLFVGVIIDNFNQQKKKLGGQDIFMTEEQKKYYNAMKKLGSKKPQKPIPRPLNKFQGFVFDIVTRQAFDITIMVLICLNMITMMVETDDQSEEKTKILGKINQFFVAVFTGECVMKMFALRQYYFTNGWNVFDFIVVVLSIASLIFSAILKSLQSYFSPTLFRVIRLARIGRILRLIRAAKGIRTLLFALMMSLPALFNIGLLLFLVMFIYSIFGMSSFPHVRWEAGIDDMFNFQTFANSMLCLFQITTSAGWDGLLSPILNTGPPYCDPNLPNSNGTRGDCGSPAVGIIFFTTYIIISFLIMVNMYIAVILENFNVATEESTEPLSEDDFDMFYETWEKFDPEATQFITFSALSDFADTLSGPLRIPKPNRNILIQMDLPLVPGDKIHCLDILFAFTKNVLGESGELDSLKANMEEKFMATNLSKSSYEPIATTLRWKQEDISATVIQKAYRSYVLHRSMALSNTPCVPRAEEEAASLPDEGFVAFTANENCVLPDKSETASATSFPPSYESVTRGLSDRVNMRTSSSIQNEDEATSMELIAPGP

Compound `NC(=O)COc1ccc(CN2C(=O)C3(COc4cc5c(cc43)OCCO5)c3ccccc32)cc1` (stereo not shown) [Example 13.2, 2-{4-[(2′-oxo-2,3-dihydrospiro[furo[2,3-g][1,4]benzodioxine-8,3′-indol]-1′(2′H)-yl)methyl]phenoxy}acetamide] has a Ki [1] of over 300 nM, an IC50 (sodium channel) of 1 to 100 nM and a melting point of 225 to 227 °C. The inhibition at 10 µM (CYP3A4) was over 50%.
For `CN(C)CCOc1ccc(CN2C(=O)C3(COc4cc5c(cc43)OCCO5)c3ccccc32)cc1` (stereo not shown) [Example 13.4, 1′-{4-[2-(dimethylamino)ethoxy]benzyl}-2,3-dihydrospiro[furo[2,3-g][1,4]benzodioxine-8,3′-indol]-2′(1′H)-one], the Ki [1] was under 300 nM, the IC50 (sodium channel) was 100 to 1000 nM and the melting point was 77 to 79 °C. It also gave an inhibition at 10 µM (CYP3A4) of over 50%.
In the case of `CCOC(=O)COc1cccc(CN2C(=O)C3(COc4cc5c(cc43)CCO5)c3ccccc32)c1` (stereo not shown) [Example 14, ethyl {3-[(2′-oxo-5,6-dihydrospiro[benzo[1,2-b:5,4-b′]difuran-3,3′-indol]-1′(2′H)-yl)methyl]phenoxy}acetate], the Ki [1] is reported as over 300 nM, the IC50 (sodium channel) is reported as 100 to 1000 nM and the melting point is reported as 45 to 46 °C. For the same compound, the inhibition at 10 µM (CYP3A4) was over 50%.
Compound `O=C1N(Cc2ccc(OCCO)cc2)c2ccccc2C12COc1cc3c(cc12)OCCO3` (stereo not shown) [Example 15.3, 1′-[4-(2-hydroxyethoxy)benzyl]-2,3-dihydrospiro[furo[2,3-g][1,4]benzodioxine-8,3′-indol]-2′(1′H)-one] has a Ki [1] of over 300 nM, a melting point of 196 to 197 °C and an inhibition at 10 µM (CYP3A4) of under 50%.
With `CC(=O)N1CCN(c2ccc(OCC3COC(Cn4ccnc4)(c4ccc(Cl)cc4Cl)O3)cc2)CC1` (stereo not shown) [Ketoconazole] the “% Inhibition in 10 μM assay” value (CYP2C19) was 65 +/− 10%.
In the case of `Nc1ccc(S(=O)(=O)Nc2ccnn2-c2ccccc2)cc1` [Sulfaphenazole], the “% Inhibition in 10 μM assay” value (CYP2C9) is reported as 50 +/− 15%.
In the case of `NC1=N[C@H](O)[C@H]2[C@H]3O[C@]4(O)O[C@@H]([C@@H](O)[C@@]2(N1)[C@@H]4O)[C@]3(O)CO` [TTX, tetrodotoxin], the “block of increase in [14C] guanidine influx” value (from here on “block of increase”) (CHO-K1 (Nav1.4)) is reported as “completely blocked using TTX”, the “block of increase” value [2] is reported as “background was partially blocked” and the “block of increase” value (L6 (Nav1.4 and 1.5)) is reported as “partially blocked by TTX at 100 nM”. The “block of increase” value (PC12 (Nav1.2)) was “guanidine influx was completely” and the “block of increase” value (SK-N-BE2C (Nav1.8)) was “TTX partially blocked influx”.
